Experimental findings from US20240206469A1, “PHOSPHORUS USE EFFICIENCY ENHANCERS AS PLANT GROWTH PROMOTORS” (EUROCHEM ANTWERPEN, priority 2021, published 2024) are described below.

The subject of one experiment is Maize. Description: Regular maize pot experiment (potting soil). It counts as in vivo, maize cultivar DKC 2931. To be noted: low phosphate, 10 μM. The procedure:
All Arabidopsis plant experiments were performed using the Arabidopsis thaliana Columbia-0 background. The Arabidopsis pSPX1::GUS line is described in the Plant Journal 2008, 54: 965-975. For rice, the cultivar Nipponbare was used. For maize, the cultivars DKC 2931 and B104 were used for regular pot experiments and sand-based pot experiments, respectively. For soybean, the cultivar Primus was used. […] The medium was solidified due to the addition of 0.6% Gelrite, unless stated otherwise. In case of vertical plates (root length and root hair measurements), the medium was supplied with 0.5% of sucrose and 1 μM (low phosphate, 1 μM KH2PO4, 9.9 mM KCl), 10 μM (low phosphate 10 μM KH2PO4, 9.9 mM KCl) or 1.25 mM KH2PO4 (high phosphate). Arabidopsis seeds were stratified for 2 days at 4° C. before germination. Seedlings were germinated in climate-controlled growth chambers at 22° C. under continuous light (100 μmol m^−2 s^−1). Husked rice seeds were germinated on wetted Whatman paper for 2 days at 37° C. and then transferred to Sterivent boxes or square Petri dishes with solid medium. Maize and soybean seeds were wetted 24 hours at room temperature prior to sowing in pots.
(§1) Regular Arabidopsis, soybean and maize pot experiments used an unfertilized potting soil, which was supplemented at the start of the experiment with 50 ml H2O containing 0.25 g/l NH4NO3 and 0.44 g/l (high phosphate) or no (maize and soybean) or 0.11 g/l KH2PO (Arabidopsis) for low phosphate conditions. […] Compound concentration was 10 μM, calculated based on the total water content after watering, and was added at the start of the experiment (Arabidopsis) or once a week (maize). […] All parameters in the sand experiment, except the rate of leaf 4 (measured the first 4 days after emergence), were measured 19 days after sowing. Measurements in the pot experiments with potting soil were done after 4 weeks of growth, except for leaf 5, which was measured at 26 days. […]

For a further experiment, the system named is Rice. Description: Rice plate experiment. It is filed as in vivo, rice cultivar Nipponbare. Conditions: low phosphate 0.001 mM, 10 μM, 11 days after germination, control 14.4. As for the experimental part: (§2) All Arabidopsis plant experiments were performed using the Arabidopsis thaliana Columbia-0 background. The Arabidopsis pSPX1::GUS line is described in the Plant Journal 2008, 54: 965-975. For rice, the cultivar Nipponbare was used. For maize, the cultivars DKC 2931 and B104 were used for regular pot experiments and sand-based pot experiments, respectively. For soybean, the cultivar Primus was used. […] The medium was solidified due to the addition of 0.6% Gelrite, unless stated otherwise. […]
(§3) Arabidopsis primary root growth experiments were done on MS1/2 on vertical standing plates and roots were measured 11 days after germination. Roots were imaged using a flatbed scanner (EPSON Expression 11000XL) and root length was measured using ImageJ software. Arabidopsis shoot biomass was determined in 11 days after germination and growth on vertical standing plates with modMS. Arabidopsis leaf area was measured 21 days after germination on horizontal plates with modMS medium. Plates were scanned from the top using a flatbed scanner (EPSON Expression 11000XL) and the visible leaf area was measured using ImageJ software. […] Plant height was measured 11 days after germination. […] Plant height was measured 13 days after germination. […]

The next experiment deals with Soybean. The experiment in a line: Soybean pot experiment. It counts as in vivo, soybean cultivar Primus. To be noted: low phosphate, 10 μM, 4 weeks. As for the experimental part: as §2, §1
In the next experiment the test system is Arabidopsis. The experiment in a line: Arabidopsis horizontal plate leaf area assay. It counts as in vivo, Arabidopsis thaliana. To be noted: 21 days after germination. As for the experimental part: as §2, §3

Take `CC1CN(CC(=O)c2c(N)n(C)c(=O)n(C)c2=O)c2ccccc2O1` (centres unmarked) [Compound 8, 6-amino-1,3-dimethyl-5-[2-(2-methyl-2,3-dihydro-1,4-benzoxazin-4-yl)acetyl]pyrimidine-2,4-dione]: the Shoot weight with Maize (4 weeks, control 4) came out at 4.6 g. The Plant height is reported as 60 cm with Maize (4 weeks, control 57); 16 cm in the experiment on Rice; 55 cm in the experiment with Soybean (control 50). Also, the “Leaf 5” value with Maize (26 days, control 40) was found to be 48 cm. Further, the Biomass with Soybean (control 4.1) came out at 4.4 g. This compound came in with a Leaf area in the experiment on Arabidopsis (low phosphate, 10 μM, control 78) of 106 mm^2. The “Leaf area in sub-optimal phosphate conditions” value in the experiment with Arabidopsis (sub-optimal phosphate, control 104) is 143 mm^2.
